This is an account of results in patent US12201696B2, “Multiplexed analysis of materials for tissue delivery” (Georgia Tech Research Corporation, priority 2017, dated 2025).

Molecules are shown by their SMILES.

The test system of the experiment is HEK293 cells stably transduced with a CMV-lox-GFP-stop-lox-RFP construct. In words: Endocytosis inhibition in LGSL-RFP HEK cells. The format is cell-based. The conditions noted are these: for effect on in vitro endocytosis and functional Cre mRNA delivery of ATL1 and ATL2: LGSL-RFP cells. Here is the method: For experiments shown in FIG. 1, cells were incubated with endocytosis inhibitors 1 hour prior to incubation with pooled LNPs against clathrin-mediated endocytosis (chlorpromazine, 100 μM, Alfa Aesar), caveolae-mediated endocytosis (genistein, 100 μM, TCI America), and macropinocytosis (5-(N-Ethyl-N-isopropyl) Amiloride, EIPA, 50 μM, Toronto Research Chemicals).
To determine whether FIND could simultaneously measure delivery mediated by many nanoparticles, 54 chemically distinct LNPs were formulated (Table 5, FIGS. 4J-4O); each carried Cre mRNA and a unique DNA barcode. The LNPs were administered to HEK cells in a 6 well plate using an mRNA dose of 10, 100, or 1000 ng/well, and a mRNA: DNA barcode mass ratio of 10:1. A dose-dependent increase in RFP^+ cells was observed, with over 80% of the cells RFP^+ at 1000 ng 72 hours after transfection (FIG. 1G). Barcodes were deep sequenced at all 3 doses, reasoning that LNPs which delivered barcodes at the lowest dose (4% RFP^+ cells) would also deliver LNPs at the middle dose (20% RFP^+ cells). There was a strong relationship between normalized delivery at these 2 doses (FIG. 1H). Cells treated with 1000 ng mRNA were also sequenced. As expected, the relationship between 1000 ng and either 10 or 100 ng weakened, since at this dose, nearly all the cells (>80% were RFP^+), leading to system saturation (FIG. 4P-4Q). Finally, it was evaluated whether the number of RFP^+ cells decreased when cells were pre-treated with Chlorpromazine, Genistein, or Ethylisopropyl amiloride (EIPA), which inhibit clathrin-, caveolin-, and macropinocytosis-mediated endocytosis, respectively. Compared to cells that were not treated with inhibitors, the number of RFP^+ cells decreased by 40-60%, recapitulating previous LNP results (Sahay, Querbes et al. 2013, Dahlman, Barnes et al. 2014, Wittrup, Ai et al. 2015) (FIG. 1I).
Like all high throughput screens, LNPs identified by FIND need to be validated. ATL1 and ATL2 (FIG. 3A, 3B-3E) were selected. […] (FIG. 6C-6F).

`CN(C)CCCN1c2ccccc2Sc2ccc(Cl)cc21` [Chlorpromazine, chlorpromazine]: the “effect on in vitro endocytosis and functional Cre mRNA delivery of ATL1 and ATL2” value (shortened to “effect”) was “inhibited”. Besides, the inhibition at 100 µM (Homo sapiens, HEK293, pre-treatment 1 hour before pooled 54 LNPs (100 ng total mRNA), chlorpromazine 100 μM, genistein 100 μM, EIPA 50 μM, read-out: decrease in number of RFP+ cells compared to cells not treated with inhibitors) was in the range of 40 to 60%.
Regarding `O=c1c(-c2ccc(O)cc2)coc2cc(O)cc(O)c12` [Genistein, genistein], the “effect” value is “inhibited”.
As for `CCN(c1nc(N)c(C(=O)N=C(N)N)nc1Cl)C(C)C` [EIPA, 5-(N-Ethyl-N-isopropyl) Amiloride], the “effect” value is reported as “only impacted LNP uptake”.
